Test results as given in paper PMC7796031, “Studies of Coumarin Derivatives for Constitutive Androstane Receptor (CAR) Activation” (Molecules, 2020).

Target: T1, Constitutive androstane receptor (CAR) (Homo sapiens, UniProt Q14994)
T1 construct: The pGL4-gtPBREM plasmid was transfected into Hep3B cells; endogenous in cells
T1 sequence (Q14994 1-352): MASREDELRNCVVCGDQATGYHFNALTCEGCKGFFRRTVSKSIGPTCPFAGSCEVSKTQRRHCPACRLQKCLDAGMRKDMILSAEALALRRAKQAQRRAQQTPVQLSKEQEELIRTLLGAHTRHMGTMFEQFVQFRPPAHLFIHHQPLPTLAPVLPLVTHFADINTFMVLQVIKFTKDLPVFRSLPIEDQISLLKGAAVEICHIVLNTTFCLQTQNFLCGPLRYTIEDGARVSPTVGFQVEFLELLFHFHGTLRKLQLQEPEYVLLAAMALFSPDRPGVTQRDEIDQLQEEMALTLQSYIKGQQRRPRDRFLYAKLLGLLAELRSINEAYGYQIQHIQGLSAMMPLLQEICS
Test: In vitro CAR activation screening assay (UGT1A1 promoter gtPBREM-pGL4 luciferase reporter in Hep3B-gtPBREM cells)
Format: cell-based
In short: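 Reporter: Hep3B cells stably carrying the UGT1A1 gtPBREM promoter in pGL4 luciferase (G418-selected), seeded at 1.5×10^5 cells/well overnight and then exposed to compounds at 10 μM for several hours (under 8 h). Luminescence of equal lysate amounts served as the CAR activation read-out. CITCO and scoparone served as reference agonists, and shCAR-transfected cells were used in follow-up.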

SMILES	luciferase activity (assay validation, positive control, indirect agonist)	increased CAR activation fold (10 μM, compared to scoparone)	activation at 10 µM (Table 2, 10 μM, (luminescence of compound − luminescence of scoparone)/luminescence of scoparone × 100%, read-out: CAR Activation Fold)
COc1cc2ccc(=O)oc2cc1OC [Compound 39, scoparone]	enhance luciferase activity		
CC(C)=CCOc1cc2ccc(=O)oc2cc1OCC=C(C)C [Compound 50, 6,7-diprenoxycoumarin]		50%	50%
